Source: patent US20210393856A1, “COMPOSITIONS AND METHODS FOR REDUCING CALCIFICATION OF HEART VALVES” (Arizona Board of Regents on Behalf of the University of …, priority 2018, published 2021)
Blank lines part the entries; values can stand above or below the molecule they belong to.

Experiments:
mouse VIC = experiment: Osteogenic markers after mouse VIC incubation with adenosine receptor agonists; type: cell-based; conditions: mouse VIC / AVM cell cultures, FIG. 8
AVM cultures = experiment: Effects of adenosine and adenosine receptor agonists on Runx2 expression in AVM cultures (qPCR); type: cell-based, mouse; conditions: for expression of Runx2 compared to control cultures: up to 5 days, FIG. 12
Text: Expression was normalized to GAPDH. Average of 3 independent repeats with SEM.
Runx2 expression increases in calcifying AVM cells with time in culture. Cells treated with either 2′-MeCCPA (A1 agonist) or PSB0777 (A2a agonist) up to 5 days.
Adenosine levels were confirmed using HPLC.

calcifying AVM cells = experiment: Runx2-II and Mgp in calcifying AVM cells in the presence of AMP; type: cell-based, mouse; conditions: FIG. 9
AVM cell cultures = experiment: qPCR measurement of osteogenic marker expression by AVM cell cultures (ATP, PO4, CD73); type: cell-based, mouse
Text: (§1) Over 5 days, exposure to this concentration of ATP is apoptotic as measured by the ratio of Bax/Bcl2, and this may contribute to calcification.

[1] = test system: Alkaline phosphatase (ALP); conditions: aortas incubated in osteogenic medium (Zukowska et al., 2017); cited from earlier work
valve cell cultures = experiment: Apoptosis measured by the ratio of Bax/Bcl2 in valve cell cultures; type: cell-based; conditions: 100 μM, over 5 days
Text: as §1

[2] = test system: calcifying AVM cell cultures; experiment: Runx2 isoform and osteogenic marker expression in calcifying AVM cell cultures with various treatments; type: cell-based, mouse
Description: Embryonic precursors of valvular interstitial cells (VICs) calcify when grown as tissue culture aggregates similar to micromass cultures of limb cells developed by (Ahrens et al., 1977). A mouse fetal VIC cell line (AVM cells) obtained from the Immortamouse (gift of Kai Jiao, UAB) were used to investigate calcification. These cells express a temperature sensitive Large T antigen and are immortal at 33° C. and revert to a valvular phenotype at 37° C.
The cell and organ culture models described above are used to study valve calcification by staining and expression of osteogenic markers. […] Both Runx2 isoform levels are elevated concomitant with calcification in vitro and in situ. To explore the relationship between identified regulators and markers of the osteogenic program in calcifying valve tissues, Runx2 isoform and osteogenic marker expression was measured in calcifying AVM cell cultures with various treatments. AVM cultures were treated with siRNA against Runx2-II, noggin (inhibitor of BMP), an anti-TGFβ antibody (against all three isoforms), and DAPT (inhibitor of Notch signaling). […] These indicate that Runx2 is a fairly central player in this calcification process but that Runx2 expression, in these cultures, is independent of TGFβ and BMP signaling.
For cell culture, human and porcine VICs and human valvular endothelial cells (VECs) are used. VICs are expanded from initial culture and stored as aliquots in liquid nitrogen. All experiments are performed with low passage number cells and each cell source is profiled by the UA Genetics Core to confirm and maintain the identity of each cell line. A mouse AV valve mesenchymal cell line (AVM) was obtained from Kai Jao (U. of Ala., Birmingham). These cells were from mice containing a temperature sensitive large T transgene (Immorta-Mouse) and the cells were grown at 33° C. to obtain an immortal cell line (Peng et al., 2017). The cells revert to a cushion/valve phenotype at 37° C. The micromass cultures of Solursh and colleagues (Ahrens et al.,1977) were recapitulated to observe calcification in vitro in this cell system. Calcium deposits became visible by von Kossa staining by 5 days in culture and prominent by day 12 (FIG. 3). […] Marker expression is consistent with a valve calcification phenotype and supports a central role for Runx2 in calcification (FIG. 2). For organ culture of intact valves, fresh aortic pig valves are obtained from the meat lab in the College of Agriculture and incubated on the surface of collagen gels. Experiments compare responses in intact aortic valves and VIC and VEC cell lines. […] Though 19 purinergic receptors are identified in Table 1, those P2Y and P2X receptors that are not found in valve tissues are excluded from further analysis.

micromass cultures = experiment: Concentration of adenosine in culture media of micromass cultures after adding recombinant CD73; type: cell-based; set-up: concentration of adenosine in the culture media: unit not given here; conditions: 1 μg/ml, approximately 100,000 cells in a dish

- induction of osteogenic markers (Runx2 and MGP) (mouse VIC): significant induction
- expression of Runx2 compared to control cultures (AVM cultures; 0.1 μM): reduced
Molecule: C[C@@]1(O)[C@H](O)[C@@H](CO)O[C@H]1n1cnc2c(NC3CCCC3)nc(Cl)nc21 [2′-MeCCPA]

Molecule: Nc1ncnc2c1ncn2[C@@H]1O[C@H](COP(=O)(O)O)[C@@H](O)[C@H]1O [AMP]
- Runx2-II and Mgp (calcifying AVM cells): reduced

Molecule: Nc1ncnc2c1ncn2[C@@H]1O[C@H](COP(=O)(O)OP(=O)(O)OP(=O)(O)O)[C@@H](O)[C@H]1O [ATP]
- osteocalcin and osteopontin (AVM cell cultures; 100 μM added every 12 hr, at 5 days): large increase
- Alkaline phosphatase (ALP) activity [1]: increased
- apoptosis as ratio of Bax/Bcl2 (valve cell cultures): apoptotic

Molecule: C[C@H](NC(=O)Cc1cc(F)cc(F)c1)C(=O)N[C@H](C(=O)OC(C)(C)C)c1ccccc1 [DAPT, reference compound]
- Runx2 expression [2]: reduced Runx2 expression
- expression of other markers (Twist1, Cbfβ, MGP) [2]: upregulated the other markers

Molecule: O=P(O)(O)O [PO4]
- osteogenic markers (AVM cell cultures; added to culture media, at 12 days, FIG. 13): increases

- induction of osteogenic markers (Runx2 and MGP) (mouse VIC): significant induction
- expression of Runx2 compared to control cultures (AVM cultures; 1 μM): reduced
Molecule: Nc1nc(SCCc2ccc(S(=O)(=O)O)cc2)nc2c1ncn2[C@@H]1O[C@H](CO)[C@@H](O)[C@H]1O [PSB0777]

Molecule: Nc1ncnc2c1ncn2[C@@H]1O[C@H](CO)[C@@H](O)[C@H]1O [adenosine]
- Runx2 expression (AVM cultures; AVM cultures at 0.35 μM, 3.5 μM and 50 μM adenosine, normalized to GAPDH, FIG. 11): inhibited at an exposure consistent with the high affinity A1 receptor
- Alkaline phosphatase (ALP) activity [1]: reduced

B1: noggin: inhibitor of BMP (protein, UniProt Q13253 28-232, looked up)
Noggin: QHYLHIRPAPSDNLPLVDLIEHPDPIFDPKEKDLNETLLRSLLGGHYDPGFMATSPPEDRPGGGGGAAGGAEDLAELDQLLRQRPSGAMPSEIKGLEFSEGLAQGKKQRLSKKLRRKLQMWLWSQTFCPVLYAWNDLGSRFWPRYVKVGSCFSKRSCSVPEGMVCKPSKSVHLTVLRWRCQRRGGQRCGWIPIQYPIISECKCSC
- Runx2 expression [2]: little effect
- expression of other markers (Twist1, Cbfβ, MGP) [2]: lesser effects

B2: recombinant CD73: ecto-5′-nucleotidase, converts AMP to adenosine (protein, UniProt P21589 27-549, looked up)
5'-nucleotidase: WELTILHTNDVHSRLEQTSEDSSKCVNASRCMGGVARLFTKVQQIRRAEPNVLLLDAGDQYQGTIWFTVYKGAEVAHFMNALRYDAMALGNHEFDNGVEGLIEPLLKEAKFPILSANIKAKGPLASQISGLYLPYKVLPVGDEVVGIVGYTSKETPFLSNPGTNLVFEDEITALQPEVDKLKTLNVNKIIALGHSGFEMDKLIAQKVRGVDVVVGGHSNTFLYTGNPPSKEVPAGKYPFIVTSDDGRKVPVVQAYAFGKYLGYLKIEFDERGNVISSHGNPILLNSSIPEDPSIKADINKWRIKLDNYSTQELGKTIVYLDGSSQSCRFRECNMGNLICDAMINNNLRHTDEMFWNHVSMCILNGGGIRSPIDERNNGTITWENLAAVLPFGGTFDLVQLKGSTLKKAFEHSVHRYGQSTGEFLQVGGIHVVYDLSRKPGDRVVKLDVLCTKCRVPSYDPLKMDEVYKVILPNFLANGGDGFQMIKDELLRHDSGDQDINVVSTYISKMKVIYPAVEGRIKFS
- effects of exogenous ATP (osteogenic markers, apoptosis) (AVM cell cultures; exogenous enzyme added with 100 μM ATP): reduced
- increase of adenosine concentration in the culture media (micromass cultures): 5 fold
- concentration of adenosine in the culture media (micromass cultures; from 1.7 without enzyme): 8.7
